Assay results published in US11384055B2 (BIOMARIN PHARMACEUTICAL INC., priority 2017, dated 2022).

These compounds were tested against T1, Human GO (Homo sapiens, UniProt Q9UJM8) (assay: GO enzymatic assay (coupled fluorescence/HRP assay, glycolate substrate)). Details: Table 4; read-out: Range (range of IC50 values calculated from the enzymatic assays).
T1 construct: purchased Novus Biologicals NBP1-72412
T1 sequence (Q9UJM8 1-370): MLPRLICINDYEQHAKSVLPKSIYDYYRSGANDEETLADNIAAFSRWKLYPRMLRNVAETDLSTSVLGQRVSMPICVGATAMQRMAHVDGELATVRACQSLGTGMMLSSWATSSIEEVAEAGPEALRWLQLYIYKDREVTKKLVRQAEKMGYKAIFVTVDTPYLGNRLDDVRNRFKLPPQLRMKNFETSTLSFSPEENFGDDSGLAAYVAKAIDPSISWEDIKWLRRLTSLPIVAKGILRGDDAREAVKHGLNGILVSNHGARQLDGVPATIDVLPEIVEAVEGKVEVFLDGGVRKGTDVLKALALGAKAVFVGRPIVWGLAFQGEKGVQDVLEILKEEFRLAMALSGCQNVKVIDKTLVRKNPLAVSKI
Format: biochemical
In short: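 Human GO incubated with glycolate substrate in 50 mM potassium phosphate, pH 7, with varying inhibitor concentrations. Activity read by coupled HRP fluorescence. IC50 taken from variable-slope sigmoidal dose-response fits of percent inhibition relative to DMSO control.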

First: CN(c1nn[nH]c1C(=O)O)[C@H]1CC[C@@H](c2ccc(OC(F)(F)F)cc2)CC1 [Example 465, 4-(methyl((cis)-4-(4-(trifluoromethoxy)phenyl)cyclohexyl)amino)-1H-1,2,3-triazole-5-carboxylic acid]
Second: CN(C)CCCOc1ccc([C@H]2CC[C@H](Oc3nn[nH]c3C(=O)O)CC2)cc1 [Example 478, 4-(((trans)-4-(4-(3-(dimethylamino)propoxy)phenyl)cyclohexyl)oxy)-1H-1,2,3-triazole-5-carboxylic acid 2,2,2-trifluoroacetate]
The IC50 of the first is higher: 100 to 1000 nM for the first, under 100 nM for the second.

`O=C(O)c1[nH]nnc1O[C@H]1CC[C@H](c2ccc(-c3ccn[nH]3)c(CO)c2)CC1` [Example 466, 4-(((trans)-4-(3-(hydroxymethyl)-4-(1H-pyrazol-5-yl)phenyl)cyclohexyl)oxy)-1H-1,2,3-triazole-5-carboxylic acid] and `O=C(O)c1[nH]nnc1O[C@H]1CC[C@@H](c2ccc(-c3ccn[nH]3)c(CO)c2)CC1` [Example 467, 4-(((cis)-4-(3-(hydroxymethyl)-4-(1H-pyrazol-5-yl)phenyl)cyclohexyl)oxy)-1H-1,2,3-triazole-5-carboxylic acid 2,2,2-trifluoroacetate] cannot be ordered by IC50: under 100 nM for the first, under 100 nM for the second.

`CN1CCN(c2ccc([C@H]3CC[C@H](Oc4nn[nH]c4C(=O)O)CC3)cc2)CC1` [Example 468, 4-(((trans)-4-(4-(4-methylpiperazin-1-yl)phenyl)cyclohexyl)oxy)-1H-1,2,3-triazole-5-carboxylic acid 2,2,2-trifluoroacetate] and `NCCCOc1ccc([C@H]2CC[C@H](Oc3nn[nH]c3C(=O)O)CC2)cc1` [Example 472, 4-(((trans)-4-(4-(3-aminopropoxy)phenyl)cyclohexyl)oxy)-1H-1,2,3-triazole-5-carboxylic acid 2,2,2-trifluoroacetate] cannot be ordered by IC50: under 100 nM for the first, under 100 nM for the second.

`CC(C)(O)Cn1ccc(-c2ccc([C@H]3CC[C@H](Oc4nn[nH]c4C(=O)O)CC3)cc2)n1` [Example 469, 4-(((trans)-4-(4-(1-(2-hydroxy-2-methylpropyl)-1H-pyrazol-3-yl)phenyl)cyclohexyl)oxy)-1H-1,2,3-triazole-5-carboxylic acid 2,2,2-trifluoroacetate] and `CC(C)(O)Cn1nccc1-c1ccc([C@H]2CC[C@H](Oc3nn[nH]c3C(=O)O)CC2)cc1` [Example 480, 4-(((trans)-4-(4-(1-(2-hydroxy-2-methylpropyl)-1H-pyrazol-5-yl)phenyl)cyclohexyl)oxy)-1H-1,2,3-triazole-5-carboxylic acid] cannot be ordered by IC50: under 100 nM for the first, under 100 nM for the second.

`O=C(O)c1[nH]nnc1O[C@H]1CC[C@H](c2ccc(-c3ccnn3CC3(O)CCCCC3)cc2)CC1` [Example 471, 4-(((trans)-4-(4-(1-((1-hydroxycyclohexyl)methyl)-1H-pyrazol-5-yl)phenyl)cyclohexyl)oxy)-1H-1,2,3-triazole-5-carboxylic acid 2,2,2-trifluoroacetate] and `CCC(O)(CC)Cn1nccc1-c1ccc([C@H]2CC[C@H](Oc3nn[nH]c3C(=O)O)CC2)cc1` [Example 479, 4-(((trans)-4-(4-(1-(2-ethyl-2-hydroxybutyl)-1H-pyrazol-5-yl)phenyl)cyclohexyl)oxy)-1H-1,2,3-triazole-5-carboxylic acid] cannot be ordered by IC50: under 100 nM for the first, under 100 nM for the second.

`CCC(CC)c1cc(-c2ccc([C@H]3CC[C@H](Oc4nn[nH]c4C(=O)O)CC3)cc2)[nH]n1` [Example 473, 4-(((trans)-4-(4-(3-(pentan-3-yl)-1H-pyrazol-5-yl)phenyl)cyclohexyl)oxy)-1H-1,2,3-triazole-5-carboxylic acid] and `COCCc1cc(-c2ccc([C@H]3CC[C@H](Oc4nn[nH]c4C(=O)O)CC3)cc2)[nH]n1` [Example 485, 4-(((trans)-4-(4-(3-(2-methoxyethyl)-1H-pyrazol-5-yl)phenyl)cyclohexyl)oxy)-1H-1,2,3-triazole-5-carboxylic acid 2,2,2-trifluoroacetate] cannot be ordered by IC50: under 100 nM for the first, under 100 nM for the second.

`CNCCCOc1ccc([C@H]2CC[C@H](Oc3nn[nH]c3C(=O)O)CC2)cc1` [Example 474, 4-(((trans)-4-(4-(3-(methylamino)propoxy)phenyl)cyclohexyl)oxy)-1H-1,2,3-triazole-5-carboxylic acid 2,2,2-trifluoroacetate] and `O=C(O)c1[nH]nnc1O[C@H]1CC[C@H](c2ccc(Cl)c(C3CCC3)c2)CC1` [Example 482, 4-(((trans)-4-(4-chloro-3-cyclobutylphenyl)cyclohexyl)oxy)-1H-1,2,3-triazole-5-carboxylic acid] cannot be ordered by IC50: under 100 nM for the first, under 100 nM for the second.

`O=C(O)c1[nH]nnc1O[C@H]1CC[C@H](c2ccc(OC(F)(F)F)c(C3CCC3)c2)CC1` [Example 484, 4-(((trans)-4-(3-cyclobutyl-4-(trifluoromethoxy)phenyl)cyclohexyl)oxy)-1H-1,2,3-triazole-5-carboxylic acid] and `O=C(O)c1[nH]nnc1CO[C@H]1CC[C@H](c2cc(Cl)cc(Cl)c2)CC1` [Example 486, 4-((((trans)-4-(3,5-dichlorophenyl)cyclohexyl)oxy)methyl)-1H-1,2,3-triazole-5-carboxylic acid] cannot be ordered by IC50: under 100 nM for the first, under 100 nM for the second.
